Assay results: patent US20100179158A1, “INHIBITORS OF CYCLIC AMP PHOSPHODIESTERASES” (priority 2007, published 2010)

Columns and labels:
PDE4B3 = target: T1, PDE4B3 (Mus musculus, UniProt Q8VBU5); test: Fission yeast 5FOA growth assay, strain expressing PDE4B3; format: cell-based, murine; conditions: 5FOA growth screen; for 2 Assay (2 uM), PDE 4B3: 2 uM compound; for 1 Assay (20 uM), PDE 4B3: 20 uM compound
T1 construct: targets used in the assays are full-length proteins (as opposed to simply the catalytic domain); expressed in transfected cells; host or cells: Schizosaccharomyces pombe, gene integrated at the cgs2 locus
T1 sequence (Q8VBU5 1-721): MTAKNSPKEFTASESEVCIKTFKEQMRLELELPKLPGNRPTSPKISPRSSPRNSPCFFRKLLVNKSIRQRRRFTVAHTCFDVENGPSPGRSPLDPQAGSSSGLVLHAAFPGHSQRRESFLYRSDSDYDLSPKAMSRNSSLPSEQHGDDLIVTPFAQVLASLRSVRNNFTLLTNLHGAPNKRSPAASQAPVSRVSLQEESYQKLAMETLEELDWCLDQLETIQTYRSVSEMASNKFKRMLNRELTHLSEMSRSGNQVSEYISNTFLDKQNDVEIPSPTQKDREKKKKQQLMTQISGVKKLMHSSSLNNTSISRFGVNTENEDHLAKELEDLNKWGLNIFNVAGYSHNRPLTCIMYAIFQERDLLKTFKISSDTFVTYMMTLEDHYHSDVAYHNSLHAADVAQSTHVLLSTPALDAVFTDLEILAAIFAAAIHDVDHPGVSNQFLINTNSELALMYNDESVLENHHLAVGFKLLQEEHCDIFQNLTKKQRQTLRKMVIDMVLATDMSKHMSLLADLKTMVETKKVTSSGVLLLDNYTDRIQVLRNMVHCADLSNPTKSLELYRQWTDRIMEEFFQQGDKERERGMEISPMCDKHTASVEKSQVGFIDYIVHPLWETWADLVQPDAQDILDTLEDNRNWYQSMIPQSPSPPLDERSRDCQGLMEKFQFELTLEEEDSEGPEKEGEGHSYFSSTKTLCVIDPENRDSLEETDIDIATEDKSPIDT
Experimental: High throughput drug screens were carried out at the Broad Institute's Chemical Biology Program screening facility (Broad Institute, Cambridge, Mass.). Depending upon the strain, cultures were pregrown to exponential phase in EMM complete medium containing from 0.5 to 2.5 mM cAMP to repress fbp1-ura4 transcription. […] Starting cell concentrations ranged from 0.5×10^5 to 4×10^5 cells/ml depending on the screening strain. […] Other positive control dishes contained 5 mM cAMP in the 5FOA medium. Cultures were grown for 48 hours at 30° C., sealed in an airtight container with moist paper towels to prevent evaporation. Optical densities (OD600) of cultures were measured using a microplate reader. Bioinformatic analysis of the results to determine composite Z scores was performed as previously described^30, 31.
Cells were pregrown in EMM medium [MP Biomedicals (Solon, OH), 3% glucose, filter-sterilized to avoid carmelization, which would introduce variability into the optical density of the medium] containing from 0 mM to 2.5 mM cAMP (or either 0.5 mM or 1.0 mM cGMP). This was to repress expression of the fbp1-ura4 reporter prior to exposure of cells to 5FOA medium. Cells were grown at 30° C. to exponential phase (approximately 10^7 cells/ml). […] Starting cell concentrations ranged from 0.5×10^5 to 4×10^5 cells/ml depending on the screening strain. […] Other positive control dishes contained 5 mM cAMP in the 5FOA medium for PDEs that lack appropriate control compounds. Cultures were grown for 48 hours at 30° C., sealed in an airtight container with moist paper towels to prevent evaporation. Optical densities (OD600) of cultures were measured using a microplate reader. Bioinformatic analysis of the results to determine composite Z scores was performed as previously described (1, 3).

PDE7A = target: T2, PDE7A (Homo sapiens, UniProt Q13946); test: Fission yeast 5FOA growth assay, strain expressing PDE7A; format: cell-based; conditions: 5FOA growth screen; for 2 Assay (2 uM), PDE 7A: 2 uM compound; for 1 Assay (20 uM), PDE 7A: 20 uM compound
T2 construct: targets used in the assays are full-length proteins (as opposed to simply the catalytic domain); expressed in transfected cells; host or cells: Schizosaccharomyces pombe, gene integrated at the cgs2 locus
Experimental: Cells were pregrown in EMM medium [MP Biomedicals (Solon, OH), 3% glucose, filter-sterilized to avoid carmelization, which would introduce variability into the optical density of the medium] containing from 0 mM to 2.5 mM cAMP (or either 0.5 mM or 1.0 mM cGMP). This was to repress expression of the fbp1-ura4 reporter prior to exposure of cells to 5FOA medium. Cells were grown at 30° C. to exponential phase (approximately 10^7 cells/ml). Cells were collected by centrifugation and resuspended in 5FOA medium, and 25 μl were transferred to 384-well microtiter dishes (untreated, with flat clear bottoms) that had been pre-filled with 25 μl 5FOA medium and pre-pinned with 100 nl of compounds (stock solutions were generally 10 mM). Starting cell concentrations ranged from 0.5×10^5 to 4×10^5 cells/ml depending on the screening strain. […] Other positive control dishes contained 5 mM cAMP in the 5FOA medium for PDEs that lack appropriate control compounds. Cultures were grown for 48 hours at 30° C., sealed in an airtight container with moist paper towels to prevent evaporation. Optical densities (OD600) of cultures were measured using a microplate reader. Bioinformatic analysis of the results to determine composite Z scores was performed as previously described (1, 3).

T2 sequence (Q13946 whole entry, the tested form may be a part): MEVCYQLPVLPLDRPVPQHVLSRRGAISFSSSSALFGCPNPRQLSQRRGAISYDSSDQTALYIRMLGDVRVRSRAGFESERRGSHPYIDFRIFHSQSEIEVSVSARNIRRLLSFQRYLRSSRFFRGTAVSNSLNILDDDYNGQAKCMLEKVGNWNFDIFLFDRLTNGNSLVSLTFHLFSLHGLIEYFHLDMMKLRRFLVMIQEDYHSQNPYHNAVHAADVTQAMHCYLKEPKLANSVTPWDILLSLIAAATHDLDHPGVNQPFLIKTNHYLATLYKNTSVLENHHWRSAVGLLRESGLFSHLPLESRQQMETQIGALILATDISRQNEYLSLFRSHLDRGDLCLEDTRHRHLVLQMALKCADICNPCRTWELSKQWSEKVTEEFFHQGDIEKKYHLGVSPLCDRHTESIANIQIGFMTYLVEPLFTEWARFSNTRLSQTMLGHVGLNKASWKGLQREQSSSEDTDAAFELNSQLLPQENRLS

2 Assay (2 uM), PDE 4B3 (PDE4B3) | 1 Assay (20 uM), PDE 4B3 (PDE4B3) | 2 Assay (2 uM), PDE 7A (PDE7A) | 1 Assay (20 uM), PDE 7A (PDE7A) | SMILES
22.05 | −0.26 | 5.07 | 2.34 | COC(=O)C1=C(C)N(c2ccccc2Cl)C(=O)/C1=C\c1cccs1 [Compound 27]
 | 200.51 |  | 0.31 | Cc1ccc2c(c1)c1nc3ccccc3nc1n2C(C)C [Compound 41]
 | 24.16 ND ND ND ND |  | −0.08 ND ND ND ND | COC(=O)C1=C(C)N(c2ccccc2F)C(=O)/C1=C\c1cccc(OC)c1O [2008, C21]
 | −2.99 ND ND ND ND |  | 2.78 ND ND ND ND | COC(=O)C1=C(C)N(c2ccc(C(C)C)cc2)C(=O)/C1=C\c1cccs1 [2008, O19]
37.54 | 70.26 | 57.22 | 132.82 | COC(=O)C1=C(C)N(C2CCCCC2)C(=O)/C1=C\c1cccs1 [Compound 22]
 | −0.61 ND ND ND ND |  | 2.43 ND ND ND ND | COC(=O)C1=C(C)N(c2ccccc2)/C(=C/c2cccs2)C1=O [2008, K19]
